In patent publication US4724233A, “Therapeutical application of phosphonylmethoxyalkyl adenines” (Stichting Rega VZW, priority 1985, dated 1988):
In brackets after ≈: the same amount, converted by molar mass. Entries after “also recorded” stand apart in the source; their conditions may differ. Read-outs that look alike come from different tables or passages of the source.

Legend:
Reovirus = assay: inhibition of cytopathic effect of reovirus; format: cell-based; settings: Table 3, Vero B cells
[1] = test system: herpes simplex virus type 1 (HSV-1) (strain KOS); format: cell-based; settings: PRK cells
Parainfluenza 3 = assay: inhibition of cytopathic effect of parainfluenza 3; format: cell-based; settings: Table 3, Vero B cells
Vesicular stomatitis = assay: microbe, parasite or virus in culture; format: cell-based; settings: for EC50: read-out: MIC50
[2] = test system: HSV-1 (strain) TK^- C1101; assay: inhibition of cytopathic effect of HSV-1 TK- strain C1101; format: cell-based, herpes simplex virus type 1; settings: for EC50: Human alphaherpesvirus 1, PRK, read-out: MIC50
PRK cells [3] = settings: 72 h
Herpes simplex 2 (G) = assay: inhibition of cytopathic effect of herpes simplex 2 (G); format: cell-based, herpes simplex virus type 2; settings: PRK cells; for EC50: Human alphaherpesvirus 2, PRK, read-out: MIC50
Moloney sarcoma = assay: inhibition of Moloney sarcoma virus; format: cell-based, Moloney mouse sarcoma virus; settings: Table 3, MO cells; for EC50: Mus musculus, read-out: MIC50
HSV-2 (strain) 196 = assay: inhibition of cytopathic effect of HSV-2 strain 196; format: cell-based, herpes simplex virus type 2; settings: Table 4, HSV-2 196, PRK cells; for EC50: Human alphaherpesvirus 2, read-out: MIC50
HSV-1 (strain) McIntyre = assay: inhibition of cytopathic effect of HSV-1 strain McIntyre; format: cell-based, herpes simplex virus type 1; settings: Table 4, HSV-1 McIntyre, PRK cells; for EC50: Human alphaherpesvirus 1, read-out: MIC50
Polio 1 = assay: microbe, parasite or virus in culture; format: cell-based
HSV-2 (strain) Lyons = assay: inhibition of cytopathic effect of HSV-2 strain Lyons; format: cell-based, herpes simplex virus type 2; settings: Table 4, HSV-2 Lyons, PRK cells; for EC50: Human alphaherpesvirus 2, read-out: MIC50
HSV-1 (strain) F = assay: inhibition of cytopathic effect of HSV-1 strain F; format: cell-based, herpes simplex virus type 1; settings: Table 4, HSV-1 F, PRK cells; for EC50: Human alphaherpesvirus 1, read-out: MIC50
Measles = assay: inhibition of cytopathic effect of measles; format: cell-based; settings: Table 3, Vero Flow cells
[4] = test system: HSV-1 (strain) TK^- B2006; assay: inhibition of cytopathic effect of HSV-1 TK- strain B2006; format: cell-based, herpes simplex virus type 1; settings: for EC50: Human alphaherpesvirus 1, PRK, read-out: MIC50
PRK cells [5] = assay: antimetabolic activity: incorporation of 3H-labeled precursors into primary rabbit kidney cells
vaccinia virus (VV) = format: cell-based; settings: PRK cells, average of two determinations
Coxsackie B4 = assay: inhibition of cytopathic effect of Coxsackie B4; format: cell-based; settings: Table 3, Vero B, HeLa cells
Herpes simplex I (KOS) = assay: inhibition of cytopathic effect of herpes simplex 1 (KOS); format: cell-based, herpes simplex virus type 1; settings: PRK cells; for EC50: Human alphaherpesvirus 1, read-out: MIC50
Vaccinia = assay: microbe, parasite or virus in culture; format: cell-based; settings: for EC50: Orthopoxvirus vaccinia, PRK, read-out: MIC50
Sindbis = assay: inhibition of cytopathic effect of Sindbis; format: cell-based; settings: Table 3, Vero B cells
TK^- herpes viruses = settings: Prusoff et al.; cited from earlier work
CMV (strain) Davis = assay: inhibition of CMV strain Davis in HEL cells; format: cell-based, cytomegalovirus; settings: Human betaherpesvirus 5, Table 5, read-out: MIC50
CMV (strain) AD 169 = assay: inhibition of CMV strain AD 169 in HEL cells; format: cell-based, cytomegalovirus; settings: Human betaherpesvirus 5; Table 5; CMV AD 169, HEL cells; read-out: MIC50
[6] = cited from earlier work
in vitro = settings: rabbit, prk cells
VZV (strain) YS = assay: microbe, parasite or virus in culture; format: cell-based, varicella-zoster virus; settings: Human alphaherpesvirus 3, Table 5, HEL cells, read-out: MIC50
VZV (strain) OKa = assay: microbe, parasite or virus in culture; format: cell-based, varicella-zoster virus; settings: Human alphaherpesvirus 3, HEL, read-out: MIC50
VZV (strain) TK^- YSR = assay: microbe, parasite or virus in culture; format: cell-based, varicella-zoster virus; settings: Human alphaherpesvirus 3, HEL, read-out: MIC50
DNA-viruses = format: cell-based
[7] = antimetabolic activity: incorporation of 3H-labeled precursors into primary rabbit kidney cells; settings: rabbit, prk cells
VZV (strain) TK^- 07-1 = assay: microbe, parasite or virus in culture; format: cell-based, varicella-zoster virus; settings: Human alphaherpesvirus 3, HEL, read-out: MIC50
[8] = 48 h, 10 μg/ml (value in parentheses)

Compound: (RS)-9-(2(3)hydroxy-3(2)-phosphonylmethoxypropyl)adenine [No. 1]
- MIC50 (Reovirus): > 400 µg/mL
- Titer of HSV-1 ([1]; 1 h, 100 μg/ml): < 1.3 log10 PFU/ml
- Titer of HSV-1 ([1]; 24 h, 100 μg/ml): 3.3 log10 PFU/ml
- Titer of HSV-1 ([1]; 48 h, 100 μg/ml): 4.0 log10 PFU/ml
- Titer of HSV-1 ([1]; 72 h, 100 μg/ml): 3.9 log10 PFU/ml
- MIC50 (Parainfluenza 3): > 200 µg/mL
- MIC50 (Vesicular stomatitis; Table 3, HeLa, PRK cells): > 400 µg/mL
- MIC50 ([2]; Table 4, HSV-1 TK^- C1101, PRK cells): 7 to 20 µg/mL
- MCC (minimal cytotoxic concentration) (PRK cells [3]): ≥ 100 µg/mL
- MIC50 (Herpes simplex 2 (G); Table 3): 7 to 20 µg/mL
- MIC50 (Herpes simplex 2 (G); Table 4, HSV-2 G): 7 to 20 µg/mL
- MIC50 (Moloney sarcoma): > 60 µg/mL
- MIC50 (HSV-2 (strain) 196): 15 to 70 µg/mL
- MIC50 (HSV-1 (strain) McIntyre): 30 µg/mL
- MIC50 (Polio 1; Table 3, HeLa cells): > 400 µg/mL
- MIC50 (HSV-2 (strain) Lyons): 7 to 15 µg/mL
- MIC50 (HSV-1 (strain) F): 15 to 30 µg/mL
- MIC50 (Measles): > 400 µg/mL
- MIC50 ([4]; Table 4, HSV-1 TK^- B2006, PRK cells): 7 µg/mL
- ID50 dUrd incorporation (PRK cells [5]; (3H-1',2')dUrd): 230 µg/mL
- ID50 Leu incorporation (PRK cells [5]; (3H-4,5)Leu): > 400 µg/mL
- ID50 Urd incorporation (PRK cells [5]; (3H-5)Urd): > 400 µg/mL
- ID50 dThd incorporation (PRK cells [5]; (3H-methyl) dThd): 250 µg/mL
- Titer of VV (vaccinia virus (VV); 1 h, 100 μg/ml): 1.7 log10 PFU/ml
- Titer of VV (vaccinia virus (VV); 24 h, 100 μg/ml): 1.7 log10 PFU/ml
- Titer of VV (vaccinia virus (VV); 48 h, 100 μg/ml): 1.2 log10 PFU/ml
- Titer of VV (vaccinia virus (VV); 72 h, 100 μg/ml): 1.5 log10 PFU/ml
- MIC50 (Coxsackie B4): > 400 µg/mL
- MIC50 (Herpes simplex I (KOS); Table 3): 20 to 30 µg/mL
- MIC50 (Herpes simplex I (KOS); Table 4, HSV-1 KOS): 20 to 30 µg/mL
- MIC50 (Vaccinia; Table 3, PRK cells): 0.7 to 3.0 µg/mL
- MIC50 (Sindbis): > 400 µg/mL

Compound: Nc1nc2c(ncn2COCCO)c(=O)[nH]1 [ACV, aclycovir, reference compound]
- EC50 (Vesicular stomatitis): > 400 µg/mL
- EC50 [2]: 20 µg/mL (≈ 88.8 µM)
- activity against TK^- herpes viruses (in words) (TK^- herpes viruses): inactive
- EC50 (CMV (strain) Davis): 20 µg/mL (≈ 88.8 µM)
- EC50 (Herpes simplex 2 (G); Table 3): 0.7 µg/mL (≈ 3.11 µM)
- EC50 (Herpes simplex 2 (G); Table 4, HSV-2 G): 0.07 µg/mL (≈ 0.311 µM)
- EC50 (Moloney sarcoma): 50 µg/mL (≈ 222 µM)
- EC50 (CMV (strain) AD 169): 30 µg/mL (≈ 133 µM)
- EC50 (HSV-2 (strain) 196): 0.07 µg/mL (≈ 0.311 µM)
- EC50 (HSV-1 (strain) McIntyre): 0.1 µg/mL (≈ 0.444 µM)
- EC50 (HSV-2 (strain) Lyons): 0.07 µg/mL (≈ 0.311 µM)
- EC50 (HSV-1 (strain) F): 0.2 µg/mL (≈ 0.888 µM)
- EC50 [4]: 70 µg/mL (≈ 311 µM)
- EC50 (Herpes simplex I (KOS); Table 3): 0.2 µg/mL (≈ 0.888 µM)
- EC50 (Vaccinia): 70 µg/mL (≈ 311 µM)
- solubility (in words) [6]: low solubility

Compound: Nc1ncnc2c1ncn2C[C@@H](CO)OCP(=O)(O)O [No. 4, (S)-9-(3-hydroxy-2-phosphonylmethoxypropyl)adenine]
- EC50 (Reovirus; Reovirus sp., read-out: MIC50): > 40 µg/mL
- Titer of HSV-1 ([1]; 24 h, 100 μg/ml): < 1.3 log10 PFU/ml
- Titer of HSV-1 [1, 8]: 4.3 log10 PFU/ml
- Titer of HSV-1 ([1]; 48 h, 100 μg/ml): < 1.3 log10 PFU/ml
- EC50 (Parainfluenza 3; read-out: MIC50): > 200 µg/mL
- EC50 (Vesicular stomatitis): > 400 µg/mL
- MCC at 72 h (in vitro): ≥ 200 µg/mL
- EC50 [2]: 1 µg/mL (≈ 3.3 µM)
- EC50 (CMV (strain) Davis): 0.3 µg/mL (≈ 0.989 µM)
- EC50 (VZV (strain) YS): 0.004 µg/mL (≈ 0.0132 µM)
- EC50 (Herpes simplex 2 (G); Table 3): 1 to 3 µg/mL (≈ 3.3 to 9.89 µM)
- EC50 (Herpes simplex 2 (G); Table 4, HSV-2 G): 1 to 3 µg/mL (≈ 3.3 to 9.89 µM)
- EC50 (VZV (strain) OKa): 0.004 µg/mL (≈ 0.0132 µM)
- EC50 (Moloney sarcoma): 1 µg/mL (≈ 3.3 µM)
- EC50 (CMV (strain) AD 169): 0.3 µg/mL (≈ 0.989 µM)
- EC50 (VZV (strain) TK^- YSR): 0.004 µg/mL (≈ 0.0132 µM)
- EC50 (HSV-2 (strain) 196): 1 to 3 µg/mL (≈ 3.3 to 9.89 µM)
- EC50 (HSV-1 (strain) McIntyre): 1 to 3 µg/mL (≈ 3.3 to 9.89 µM)
- EC50 (Polio 1; HeLa, read-out: MIC50): > 400 µg/mL
- EC50 (HSV-2 (strain) Lyons): 1 µg/mL (≈ 3.3 µM)
- EC50 (HSV-1 (strain) F): 1 to 3 µg/mL (≈ 3.3 to 9.89 µM)
- EC50 (Measles; Measles morbillivirus, read-out: MIC50): > 40 µg/mL
- EC50 [4]: 1 µg/mL (≈ 3.3 µM)
- antiviral activity (in words) (DNA-viruses): the most effective one; also recorded: best antiviral activity
- IC50 ([7]; ID50 Leu incorporation, (3H-4,5)Leu): > 400 µg/mL
- IC50 ([7]; ID50 Urd incorporation, (3H-5)Urd): > 400 µg/mL
- IC50 ([7]; ID50 dThd incorporation, (3H-methyl) dThd): 297 µg/mL (≈ 980 µM)
- IC50 ([7]; ID50 dUrd incorporation, (3H-1',2')dUrd): 74 µg/mL (≈ 244 µM)
- EC50 (VZV (strain) TK^- 07-1): 0.004 µg/mL (≈ 0.0132 µM)
- Titer of VV (vaccinia virus (VV); [8]): < 1.3 log10 PFU/ml
- Titer of VV (vaccinia virus (VV); 48 h, 100 μg/ml): < 1.3 log10 PFU/ml
- EC50 (Coxsackie B4; Enterovirus B, B4, read-out: MIC50): > 400 µg/mL
- EC50 (Herpes simplex I (KOS); Table 3): 1 µg/mL (≈ 3.3 µM)
- EC50 (Vaccinia): 0.3 to 1.5 µg/mL (≈ 0.989 to 4.95 µM)
- EC50 (Sindbis; read-out: MIC50): > 400 µg/mL
